According to patent US20230159527A1, “COMPOUNDS AS BCL-2 INHIBITORS” (Fochon Pharmaceuticals, Ltd., priority 2020, published 2023):

System: DoHH2 cells
Experiment: Cell proliferation assay, DoHH2 cells (MTS, 120 h)
Type: cell-based
Conditions: Homo sapiens, DOHH-2
Procedure: MTS testing kit was purchased from Promega (Madison, Wis., USA). The RPMI-1640, Fetal bovine serum and Penicillin-Streptomycin were purchased from BI (Biological Industries, Beit Haemek, Israel). Dimethyl sulfoxide (DMSO) was purchased from Sigma (St. Louis, Mo., USA). DoHH2 (DSMZ catalog #: ACC47) cells were cultured in RPMI-1640 supplemented with Penicillin-Streptomycin and 10% FBS.
To investigate whether a compound is able to inhibit the activity of BCL-2 in cells, a mechanism-based assay using DoHH2 lines was developed. In this assay, the inhibition of BCL-2 was reflected by the inhibition of cell proliferation of DoHH2 cells. Cells were plated into 96-well plates at the optimized cell density of 5000 cells/well. Plates were incubated at 37° C., with 5% CO2 for 4h. Compounds were serially diluted and added to the plates with the final concentrations of 10000, 3333.3, 1111.1, 370.4, 123.5, 41.2, 13.7, 4.6 and 1.5 nM. Plates were incubated at 37° C., with 5% CO2 for 120 h. 20 μl MTS was added into each well and the plates were incubated at 37° C., with 5% CO2 for exactly 2 h. The absorbance was measured by a microplate reader at 490 nm. IC50 was calculated using GraphPad Prism 5.0 software.

| Structure (SMILES) | IC50 |
| --- | --- |
| CC(C)c1ccccc1[C@@H]1COCCN1C1CC2(CCN(c3ccc(C(=O)NS(=O)(=O)c4cc([N+](=O)[O-])c5c(n4)OC[C@H]([C@H]4CC[C@@](C)(O)CC4)N5)c(Oc4cnc5[nH]ccc5c4)c3)CC2)C1 (single isomer, unassigned) [Example B-48, 2-((1H-pyrrolo[2,3-b]pyridin-5-yl)oxy)-N-(((S)-2-((1s,4R)-4-hydroxy-4-methylcyclohexyl)-8-nitro-2,3-dihydro-1H-pyrido[2,3-b] [1,4]oxazin-6-yl)sulfonyl)-4-(2-((R or S)-3-(2-isopropylphenyl)morpholino)-7-azaspiro[3.5]nonan-7-yl) benzamide] | ≤ 1 nM |
| O=C(NS(=O)(=O)c1cc2c(c([N+](=O)[O-])c1)O[C@@H](CN1CCOCC1)CO2)c1ccc(N2CCC3(CC2)CC(N2CCOC[C@H]2c2ccccc2C2CC2)C3)cc1Oc1cnc2[nH]ccc2c1 (single isomer, unassigned) [Example E-37, 2-((1H-pyrrolo [2,3-b]pyridin-5-yl)oxy)-4-(2-((R or S)-3-(2-cyclopropylphenyl)morpholino)-7-azaspiro[3.5]nonan-7-yl)-N-(((S)-2-(morpholinomethyl)-8-nitro-2,3-dihydrobenzo [b][1,4]dioxin-6-yl)sulfonyl) benzamide] | ≤ 1 nM |
| CC(C)c1ccccc1C1COCCN1C1CC2(CCN(c3ccc(C(=O)NS(=O)(=O)c4cc5c(c([N+](=O)[O-])c4)O[C@@H](CN4CCOCC4)CO5)c(Oc4cnc5[nH]ccc5c4)c3)CC2)C1 (single isomer, unassigned) [Example E-36, 2-((1H-pyrrolo [2,3-b]pyridin-5-yl)oxy)-4-(2-((R or S)-3-(2-isopropylphenyl)morpholino)-7-azaspiro[3.5]nonan-7-yl)-N-(((S)-2-(morpholinomethyl)-8-nitro-2,3-dihydrobenzo [b][1,4]dioxin-6-yl)sulfonyl)benzamide] | ≤ 1 nM |
| O=C(NS(=O)(=O)c1cc2c(c([N+](=O)[O-])c1)N[C@@H](CN1CCOCC1)CCO2)c1ccc(N2CCC3(CC2)CC(N2CCC[C@H]2c2ccccc2C2CC2)C3)cc1Oc1cnc2[nH]ccc2c1 (single isomer, unassigned) [Example D-24, 2-((1H-pyrrolo[2,3-b]pyridin-5-yl)oxy)-4-(2-((R or S)-2-(2-cyclopropylphenyl)pyrrolidin-1-yl)-7-azaspiro[3.5]nonan-7-yl)-N-(((R)-4-(morpholinomethyl)-6-nitro-2,3,4,5-tetrahydrobenzo [b][1,4]oxazepin-8-yl)sulfonyl) benzamide] | ≤ 1 nM |
| CC1(O)CCC(CNc2ncc(S(=O)(=O)NC(=O)c3ccc(N4CCC5(CC4)CC(N4CCC[C@H]4c4ccccc4C4CC4)C5)cc3Oc3cnc4[nH]ccc4c3)cc2[N+](=O)[O-])CC1 (stereo partly drawn) [Example A-1b, (S)-2-((1H-pyrrolo[2,3-b]pyridin-5-yl)oxy)-4-(2-(2-(2-cyclopropylphenyl)pyrrolidin-1-yl)-7-azaspiro[3.5]nonan-7-yl)-N-((6-(((4-hydroxy-4-methylcyclohexyl)methyl)amino)-5-nitropyridin-3-yl)sulfonyl)benzamide] | ≤ 1 nM |
| O=C(NS(=O)(=O)c1cc([N+](=O)[O-])c2c(n1)OC[C@H](COC1CCOCC1)N2)c1ccc(N2CCC3(CC2)CC(N2CCCC2c2ccccc2C2CC2)C3)cc1Oc1cnc2[nH]ccc2c1 (single isomer, unassigned) [Example B-46, 2-((1H-pyrrolo[2,3-b]pyridin-5-yl)oxy)-4-(2-((R or S)-2-(2-cyclopropylphenyl)pyrrolidin-1-yl)-7-azaspiro[3.5]nonan-7-yl)-N-(((S)-8-nitro-2-(((tetrahydro-2H-pyran-4-yl)oxy)methyl)-2,3-dihydro-1H-pyrido[2,3-b] [1,4]oxazin-6-yl)sulfonyl)benzamide] | ≤ 1 nM |
| CC(C)c1ccccc1C1CCCN1C1CC2(CCN(c3ccc(C(=O)NS(=O)(=O)c4cc([N+](=O)[O-])c5c(n4)OC[C@@H](Cc4ccccc4)N5)c(Oc4cnc5[nH]ccc5c4)c3)CC2)C1 (single isomer, unassigned) [Example B-36, 2-((1H-pyrrolo[2,3-b]pyridin-5-yl)oxy)-N-(((R)-2-benzyl-8-nitro-2,3-dihydro-1H-pyrido[2,3-b] [1,4]oxazin-6-yl)sulfonyl)-4-(2-((R or S)-2-(2-isopropylphenyl)pyrrolidin-1-yl)-7-azaspiro[3.5]nonan-7-yl)benzamide] | ≤ 1 nM |
| CC(C)c1ccccc1[C@@H]1CCCN1C1CC2(CCN(c3ccc(C(=O)NS(=O)(=O)c4cc([N+](=O)[O-])c5c(n4)OC[C@H]([C@H]4CC[C@@](C)(O)CC4)N5)c(Oc4cnc5[nH]ccc5c4)c3)CC2)C1 (single isomer, unassigned) [Example B-35, 2-((1H-pyrrolo[2,3-b]pyridin-5-yl)oxy)-N-(((S)-2-((1s,4R)-4-hydroxy-4-methylcyclohexyl)-8-nitro-2,3-dihydro-1H-pyrido[2,3-b] [1,4]oxazin-6-yl)sulfonyl)-4-(2-((R or S)-2-(2-isopropylphenyl)pyrrolidin-1-yl)-7-azaspiro[3.5]nonan-7-yl)benzamide] | ≤ 1 nM |
| CC(C)c1ccccc1C1CCCN1C1CC2(CCN(c3ccc(C(=O)NS(=O)(=O)c4cc([N+](=O)[O-])c5c(n4)OC[C@H](CC4CCOCC4)N5)c(Oc4cnc5[nH]ccc5c4)c3)CC2)C1 (single isomer, unassigned) [Example B-40, 2-((1H-pyrrolo[2,3-b]pyridin-5-yl)oxy)-4-(2-((R or S)-2-(2-isopropylphenyl)pyrrolidin-1-yl)-7-azaspiro[3.5]nonan-7-yl)-N-(((S)-8-nitro-2-((tetrahydro-2H-pyran-4-yl)methyl)-2,3-dihydro-1H-pyrido[2,3-b][1,4]oxazin-6-yl)sulfonyl)benzamide] | ≤ 1 nM |
| O=C(NS(=O)(=O)c1cc2c(c([N+](=O)[O-])c1)O[C@@H](CN1CCOCC1)CO2)c1ccc(N2CCC3(CC2)CC(N2CCC[C@H]2c2ccccc2C2CC2)C3)cc1Oc1cnc2[nH]ccc2c1 (single isomer, unassigned) [Example E-34, 2-((1H-pyrrolo [2,3-b]pyridin-5-yl)oxy)-4-(2-((R or S)-2-(2-cyclopropylphenyl)pyrrolidin-1-yl)-7-azaspiro[3.5]nonan-7-yl)-N-(((5)-2-(morpholinomethyl)-8-nitro-2,3-dihydrobenzo [b][1,4]dioxin-6-yl)sulfonyl) benzamide] | ≤ 1 nM |
| CC(C)c1ccccc1C1COCCN1C1CC2(CCN(c3ccc(C(=O)NS(=O)(=O)c4cc([N+](=O)[O-])c5c(n4)OC[C@H](CC4CCOCC4)N5)c(Oc4cnc5[nH]ccc5c4)c3)CC2)C1 (single isomer, unassigned) [Example B-51, 2-((1H-pyrrolo[2,3-b]pyridin-5-yl)oxy)-4-(2-((R or S)-3-(2-isopropylphenyl)morpholino)-7-azaspiro[3.5]nonan-7-yl)-N-(((S)-8-nitro-2-((tetrahydro-2H-pyran-4-yl)methyl)-2,3-dihydro-1H-pyrido[2,3-b][1,4]oxazin-6-yl)sulfonyl)benzamide] | ≤ 1 nM |
| CC(C)c1ccccc1[C@@H]1CCCN1C1CC2(CCN(c3ccc(C(=O)NS(=O)(=O)c4cnc(NCC5CCC(C)(O)CC5)c([N+](=O)[O-])c4)c(Oc4cnc5[nH]ccc5c4)c3)CC2)C1 (stereo partly drawn) [Example A-6b, (S)-2-((1H-pyrrolo[2,3-b]pyridin-5-yl)oxy)-N-((6-(((4-hydroxy-4-methylcyclohexyl)methyl)amino)-5-nitropyridin-3-yl)sulfonyl)-4-(2-(2-(2-isopropylphenyl)pyrrolidin-1-yl)-7-azaspiro[3.5]nonan-7-yl) benzamide] | ≤ 1 nM |
